According to the supplement of paper PMC11208160:

Experiment: recombinant barcode read abundance after kanamycin selection (control-corrected) (log10(CPM+1)); higher = more efficient recombination; sequences stand for … in AGTGCAGAGAAAATCGGCCAGTTTTCTCTGCCTGCAGTCCGCATGCCGT…AGATTTATGCAGCGGACTGCCTTTCTCCCAAAGTGATAAACCGGACAGTATCATGGACCGGTTTTCCCGGTAATCCGTATTTGCAAGGTTGGTTTCACT; site = the 11-nt target
In short: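 For this pooled screen, each oligo contained a promoter, a target, a barcode and the J23119-driven first 104 bases of the bridge RNA. Gibson cloning placed it into a vector supplying the remaining 73 bp and a T7-inducible recombinase, and the pool was co-electroporated into E. coli with a donor plasmid. Recombination efficiency is derived from barcode counts per million at recombinant junctions after averaging and control correction, and is expressed on a log scale as log10(CPM+1), with selection on chloramphenicol/ampicillin/kanamycin plus 0.1 mM IPTG against a chloramphenicol/ampicillin LB agar control.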
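Further: IS621 recombinase and bridge RNA in Escherichia coli cells.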

Sequence | recombinant barcode read abundance (log10)
GATCGATCTTGGGTTCTAACCTGTTGCTT (site GATCGATCTAA) | 0.349
GATCGATCTTGGGTTCTAACCTGTTGCTT (site GATCGATCTAC) | 0
GATCGATCTTGGGTTCTAACCTGTTGCTT (site GATCGATCTAG) | 0.248
GATCGATCTTGGGTTCTAACCTGTTGCTT (site GATCGATCTAT) | 0.0953
GATCGGACTTGGGTTCTAACCTGTTGCGG (site GATCGGACTCC) | 1.69
GATCGGACTTGGGTTCTAACCTGTTGCGG (site GTTCGGACTCC) | 0.596
GATGCACCTTGGGTTCTAACCTGTTGCGG (site GATGCACCTCC) | 2.36
GATGCACCTTGGGTTCTAACCTGTTGCGG (site TGATTGACTAA) | 0.0617
GATGCTACTTGGGTTCTAACCTGTTGCAG (site GATACTACTCT) | 0.0793
GATGCTACTTGGGTTCTAACCTGTTGCAG (site GATGCTACTCT) | 1.04
GATGCTACTTGGGTTCTAACCTGTTGCGG (site GAAGCTACTAC) | 0.128
GATGCTACTTGGGTTCTAACCTGTTGCGG (site GATGCTACTCC) | 2.14
GATGGAGCTTGGGTTCTAACCTGTTGCGG (site GATCGAGCTTC) | 0.198
GATGGAGCTTGGGTTCTAACCTGTTGCGG (site GATGGAGCTCC) | 2.57
GATGGGTCTTGGGTTCTAACCTGTTGCCT (site GATGGGTCTAG) | 1.37
GATGGGTCTTGGGTTCTAACCTGTTGCCT (site GCTGGGTCTAG) | 0.015
GATGGTCCTTGGGTTCTAACCTGTTGCGG (site GACGGTCCTCC) | 0.306
GATGGTCCTTGGGTTCTAACCTGTTGCGG (site GATGGTCCTCC) | 2.34
GATTATACTTGGGTTCTAACCTGTTGCTT (site GATTATACTAA) | 0.0285
GATTATACTTGGGTTCTAACCTGTTGCTT (site TGCGGAGCTCG) | 0.046

Sequence | recombinant barcode read abundance (log10)
GATTCTCCTTGGGTTCTAACCTGTTGCCT (site GATTCTCCTAA) | 0.0949
GATTCTCCTTGGGTTCTAACCTGTTGCCT (site GATTCTCCTAC) | 0.0529
GATTCTCCTTGGGTTCTAACCTGTTGCCT (site GATTCTCCTAG) | 0.0773
GATTCTCCTTGGGTTCTAACCTGTTGCCT (site GATTCTCCTAT) | 0
GATTGTCCTTGGGTTCTAACCTGTTGCTT (site GATTGTCCTAA) | 0.294
GATTGTCCTTGGGTTCTAACCTGTTGCTT (site GGTTGTCCTTA) | 0.23
GCAATCCCTTGGGTTCTAACCTGTTGCTA (site AGAATCCCTTA) | 0.0668
GCAATCCCTTGGGTTCTAACCTGTTGCTA (site GCAATCCCTTA) | 1.48
GCAATTGCTTGGGTTCTAACCTGTTGCCT (site AAGTCGTCTTA) | 0.19
GCAATTGCTTGGGTTCTAACCTGTTGCCT (site GCAATTGCTAG) | 0.458
GCACAAGCTTGGGTTCTAACCTGTTGCCT (site GCACAAGCTAG) | 0.978
GCACAAGCTTGGGTTCTAACCTGTTGCCT (site GCTCTAGCTAG) | 0.091
GCACATACTTGGGTTCTAACCTGTTGCCT (site GCACATACTAG) | 1.2
GCACATACTTGGGTTCTAACCTGTTGCCT (site GCACATTCTAG) | 0
GCACCAACTTGGGTTCTAACCTGTTGCCT (site CCACCGACTAG) | 0.242
GCACCAACTTGGGTTCTAACCTGTTGCCT (site GCACCAACTAG) | 1.12
GCACGACCTTGGGTTCTAACCTGTTGCCT (site GCACAACCTAG) | 0.808
GCACGACCTTGGGTTCTAACCTGTTGCCT (site GCACCACCTAG) | 0.0505
GCACGACCTTGGGTTCTAACCTGTTGCCT (site GCACGACCTAG) | 1.56
GCACGACCTTGGGTTCTAACCTGTTGCCT (site GCACTACCTAG) | 0

Sequence | recombinant barcode read abundance (log10)
GCACGGACTTGGGTTCTAACCTGTTGCAG (site GCAAGGACTCT) | 0.223
GCACGGACTTGGGTTCTAACCTGTTGCAG (site GCACGGACTCT) | 2.35
GCACGGACTTGGGTTCTAACCTGTTGCAG (site GCAGGGACTCT) | 0.164
GCACGGACTTGGGTTCTAACCTGTTGCAG (site GCATGGACTCT) | 0.3
GCACTAACTTGGGTTCTAACCTGTTGCCT (site GCACTAACTAG) | 1.14
GCACTAACTTGGGTTCTAACCTGTTGCCT (site GCACTAGCTAC) | 0.216
GCAGGGACTTGGGTTCTAACCTGTTGCAG (site GCAAGGACTCT) | 0.883
GCAGGGACTTGGGTTCTAACCTGTTGCAG (site GCACGGACTCT) | 0.552
GCAGGGACTTGGGTTCTAACCTGTTGCAG (site GCAGGGACTCT) | 1.72
GCAGGGACTTGGGTTCTAACCTGTTGCAG (site GCATGGACTCT) | 0.224
GCAGGGTCTTGGGTTCTAACCTGTTGCCT (site GCAAGATCTAG) | 0.158
GCAGGGTCTTGGGTTCTAACCTGTTGCCT (site GCAGGGTCTAG) | 1.45
GCATCGTCTTGGGTTCTAACCTGTTGCCT (site GCATCGTCTAG) | 0.649
GCATCGTCTTGGGTTCTAACCTGTTGCCT (site GCCTCGTCTAG) | 0.0437
GCATCGTCTTGGGTTCTAACCTGTTGCCT (site GCGTCGTCTAG) | 0.0424
GCATCGTCTTGGGTTCTAACCTGTTGCCT (site GCTTCGTCTAG) | 0.0989
GCCAACCCTTGGGTTCTAACCTGTTGCTT (site GCCAACCCTAA) | 0.0414
GCCAACCCTTGGGTTCTAACCTGTTGCTT (site GCCAACCCTAC) | 0.0528
GCCAACCCTTGGGTTCTAACCTGTTGCTT (site GCCAACCCTAG) | 0.412
